Assays:
Assay in all cases: Antibacterial activity
s. aureos = test system: s. aureos
Source text: (§1) The fragrance accords can contain antibacterial ingredients described above. See U.S. Pat. No. 6,495,512 for a list of suitable antibacterial ingredients.

e. coli = test system: e. coli
Source text: as §1

e. hirae = test system: e. hirae
Source text: as §1

Measured: antibacterial activity

COc1ccc(C)cc1 [1-methoxy-4-methylbenzene]
high antibacterial activity: all assays above

C=CC(C)(O)CCC=C(C)C (stereo not drawn) [3,7-dimethylocta-1,6-dien-3-ol]
high antibacterial activity: all assays above

From US20200299612A1, “HIGH PERFORMING, HIGH IMPACT BLOOM ACCORD” (International Flavors & Fragrances Inc., priority 2016, published 2020)
